Our source for the Ki and IC50 values is patent US7659289B2, “Hydroxyethylene-based β-secretase inhibitors and use thereof” (CoMentis, Inc., priority 2004, dated 2010).

One experiment has as its target memapsin 2 (Homo sapiens, UniProt P56817). Nature of the experiment: Inhibition of memapsin 2 beta-secretase activity toward fluorogenic substrate FS-2. The experiment is classed as biochemical. Particulars: pH 4, 37° C., 20 minutes pre-incubation, fluorogenic substrate FS-2, tight-binding model; read-out: M2 Ki.
A further experiment has as its target T1, Memapsin 1 (Homo sapiens, UniProt Q9Y5Z0).
T1 sequence (Q9Y5Z0 63-473 limits assumed): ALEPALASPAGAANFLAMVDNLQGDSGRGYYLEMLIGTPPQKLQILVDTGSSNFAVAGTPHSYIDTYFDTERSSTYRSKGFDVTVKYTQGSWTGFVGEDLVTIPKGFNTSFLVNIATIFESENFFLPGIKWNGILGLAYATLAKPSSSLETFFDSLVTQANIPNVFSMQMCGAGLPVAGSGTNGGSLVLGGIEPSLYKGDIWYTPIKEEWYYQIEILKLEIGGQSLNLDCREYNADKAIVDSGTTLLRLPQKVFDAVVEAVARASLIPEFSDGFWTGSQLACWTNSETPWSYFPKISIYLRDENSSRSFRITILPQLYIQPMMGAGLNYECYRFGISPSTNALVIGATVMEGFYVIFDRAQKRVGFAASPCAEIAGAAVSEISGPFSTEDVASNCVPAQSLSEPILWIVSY
Nature of the experiment: Inhibition of memapsin 1 beta-secretase activity (MALDI-TOF, substrate peptide […]). The format is biochemical. The note with it: pH 4.1, 37 degrees C., read-out: M1 Ki.

For a further experiment, the target named is Cathepsin D (Homo sapiens, UniProt P07339). The experiment can be described thus: Inhibition of cathepsin D activity (MALDI-TOF, substrate peptide […]). The format is biochemical. The note with it: pH 4.1, 37 degrees C., read-out: Cath D Ki.
A further experiment relates to Aβ production. Nature of the experiment: Cellular Aβ IC50 determination (Aβ40 sandwich ELISA). The experiment is classed as cell-based. The note with it: Cricetulus griseus; Aβ40, Chinese hamster ovary cells over-expressing human APP695 with London and Swedish mutations, 24 h incubation. As to the method:
The potency of compounds against memapsin 2 activity was determined in a cellular assay of Aβ production. […] Chinese hamster ovary cells that over-express human APP695 with the London and Swedish mutations were seeded in multi-well plates at 10% confluency. Compounds were dissolved in DMSO to concentrations near 1 mM, and diluted into culture media to a final concentration near 4 μM (final 0.4% DMSO). Compounds were diluted serially and applied to cells in multi-well plates 48 h after seeding. Incubation was continued in 5% CO2 at 37 degrees C. for 24 h. Aliquots were removed and assayed for Aβ40 content using a sandwich ELISA (BioSource International). Amount of Aβ40 over the range of concentration of compounds, relative to control incubations, were fit to a 4-parameter IC50 model.

Each structure is given as a SMILES string.

Sequence of Cathepsin D (P07339 65-412, species assumed): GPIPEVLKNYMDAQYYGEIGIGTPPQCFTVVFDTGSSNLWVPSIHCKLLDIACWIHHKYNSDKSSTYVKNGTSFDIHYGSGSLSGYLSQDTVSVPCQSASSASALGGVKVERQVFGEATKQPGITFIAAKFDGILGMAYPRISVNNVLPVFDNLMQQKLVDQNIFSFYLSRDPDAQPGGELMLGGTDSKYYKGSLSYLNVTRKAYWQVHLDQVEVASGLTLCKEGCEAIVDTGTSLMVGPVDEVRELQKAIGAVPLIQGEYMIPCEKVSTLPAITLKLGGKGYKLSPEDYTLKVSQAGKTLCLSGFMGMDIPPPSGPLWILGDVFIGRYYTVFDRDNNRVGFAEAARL
Sequence of memapsin 2 (P56817 46-501): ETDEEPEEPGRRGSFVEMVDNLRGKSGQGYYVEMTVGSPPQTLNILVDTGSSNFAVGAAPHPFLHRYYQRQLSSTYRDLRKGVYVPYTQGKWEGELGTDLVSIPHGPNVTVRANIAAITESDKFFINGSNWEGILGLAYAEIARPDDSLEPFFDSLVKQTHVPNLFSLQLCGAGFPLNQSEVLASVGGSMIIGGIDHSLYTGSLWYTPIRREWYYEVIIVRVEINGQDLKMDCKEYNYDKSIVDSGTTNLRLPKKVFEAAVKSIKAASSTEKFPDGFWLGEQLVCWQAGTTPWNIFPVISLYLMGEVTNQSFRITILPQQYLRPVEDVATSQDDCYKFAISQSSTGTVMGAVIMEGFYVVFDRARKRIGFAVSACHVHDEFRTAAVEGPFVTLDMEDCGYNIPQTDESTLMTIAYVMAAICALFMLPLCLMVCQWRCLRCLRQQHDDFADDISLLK
Protocol for Memapsin 1: After equilibration at 37 degrees C., the reactions were initiated by the addition of an aliquot of memapsin 2. Aliquots were removed at time intervals, and combined with an equal volume of MALDI-TOF matrix (α-hydroxycinnamic acid in acetone, 20 mg/ml) and immediately spotted in duplicate onto a stainless-steel MALDI sample plate. MALDI-TOF mass spectrometry was performed on a PE Biosystems Voyager DE instrument at the Molecular Biology Resource Center on campus. The instrument was operated at 25,000 accelerating volts in positive mode with a 150 ns delay. Ions with a mass-to-charge ratio (m/z) were detected in the range of 650-2000 atomic mass units. Data was analyzed by the Voyager Data Explorer module to obtain ion intensity data for mass species of substrates and corresponding products in a given mixture. Relative product formation was calculated as the ratio of signal intensity of the product to the sum of signal intensities of both product and the corresponding substrate. Relative product formed per unit time was obtained from non-linear regression analysis of the data representing the initial 15% formation of product using the model: 1−e^−kT,
where k is the relative hydrolytic rate constant and T is time in seconds. Initial rates were expressed relative to uninhibited controls and fit to a tight-binding model of competitive inhibition as above.
Protocol for memapsin 2: Potency of compounds were determined by measurement of their inhibition of memapsin 2 activity toward a fluorescent substrate. […] Briefly, assays were performed at pH 4, 37° C., by pre-incubation of memapsin 2 enzyme with compound for 20 minutes. Activity measure was initiated by addition of a fluorogenic substrate FS-2 (Bachem Americas, Torrance, Calif.). Fluorescent signal increase over time was measured as a rate of hydrolysis of the peptide substrate.

A word on the Ki: it is the dissociation constant of the complex between target and ligand, obtained from inhibition or displacement. In general, IC50 refers to the concentration needed to halve the response being measured. High values mean a need for much substance, low ones inhibition by little substance. In the case of `Cc1csc(COC(=O)N[C@@H](CNS(C)(=O)=O)C(=O)N[C@@H](CC(C)C)[C@@H](O)C[C@@H](C)C(=O)N[C@H](C(=O)NCC(C)C)C(C)C)n1`, the Ki is less than 100 nM at memapsin 2, 100 to 600 nM at Memapsin 1 and 100 to 600 nM on Cathepsin D. The compound further had an IC50 in the experiment on Aβ production of more than 100000 nM.
As for `Cc1csc(COC(=O)N[C@@H](CNC(=O)OC(C)(C)C)C(=O)N[C@@H](CC(C)C)[C@@H](O)C[C@@H](C)C(=O)N[C@H](C(=O)NCC(C)C)C(C)C)n1`, the Ki on memapsin 2, on Memapsin 1 and at Cathepsin D was 100 to 600 nM each time. In the experiment with Aβ production, this compound showed an IC50 of more than 100000 nM.
Regarding `COC(=O)NC[C@H](NC(=O)OCc1nc(C)cs1)C(=O)N[C@@H](CC(C)C)[C@@H](O)C[C@@H](C)C(=O)N[C@H](C(=O)NCC(C)C)C(C)C`, the Ki on memapsin 2, on Memapsin 1 and at Cathepsin D was less than 100 nM throughout. Further, the IC50 with Aβ production was less than 6000 nM.
For the compound `Cc1csc(COC(=O)N[C@@H](CNC(=O)O[C@H]2CCOC2)C(=O)N[C@@H](CC(C)C)[C@@H](O)C[C@@H](C)C(=O)N[C@H](C(=O)NCC(C)C)C(C)C)n1`, the Ki on memapsin 2, at Memapsin 1 and at Cathepsin D was 100 to 600 nM throughout. The compound further displayed an IC50 in the experiment with Aβ production of 6000 to 100000 nM.
With `Cc1csc(CNC(=O)C[C@@H](NC(=O)OC(C)(C)C)C(=O)N[C@@H](CC(C)C)[C@@H](O)C[C@@H](C)C(=O)N[C@H](C(=O)NCC(C)C)C(C)C)n1` [tert-butyl (5R,8S,9S,11 R,14S)-9-hydroxy-8-isobutyl-14-isopropyl-11,18-dimethyl-1-(4-methylthiazol-2-yl)-3,6,12,15-tetraoxo-2,7,13,16-tetraazanonadecan-5-ylcarbamate], the Ki at memapsin 2 was less than 100 nM; on Memapsin 1 it was 100 to 600 nM.
In the same order, the values of `Cc1csc(CNC(=O)C[C@H](NC(=O)OC(C)(C)C)C(=O)N[C@@H](CC(C)C)[C@@H](O)C[C@@H](C)C(=O)N[C@H](C(=O)NCC(C)C)C(C)C)n1` [tert-butyl (5S,8S,9S,11R,14S)-9-hydroxy-8-isobutyl-14-isopropyl-11,18-dimethyl-1-(4-methylthiazol-2-yl)-3,6,12,15-tetraoxo-2,7,13,16-tetraazanonadecan-5-ylcarbamate] are 100 to 600 nM and more than 600 nM.
Turning to `CC[C@@H](Cc1nc(C)cs1)C(=O)N[C@@H](CNC(=O)OC(C)(C)C)C(=O)N[C@@H](CC(C)C)[C@@H](O)C[C@@H](C)C(=O)N[C@H](C(=O)NCC(C)C)C(C)C` [tert-butyl (S)-3-((4S,5S,7R)-5-hydroxy-8-((S)-1-(isobutylamino)-3-methyl-1-oxobutan-2-ylamino)-2,7-dimethyl-8-oxooctan-4-ylamino)-2-((S)-2-((4-methylthiazol-2-yl)methyl)butanamido)-3-oxopropylcarbamate], the Ki on memapsin 2 and on Cathepsin D was less than 100 nM throughout. For the same compound, in the experiment on Aβ production, the IC50 was less than 6000 nM.
Consider `Cc1csc(C[C@H](C)C(=O)N[C@@H](CNC(=O)OC(C)(C)C)C(=O)N[C@@H](CC(C)C)[C@@H](O)C[C@@H](C)C(=O)N[C@H](C(=O)NCC(C)C)C(C)C)n1` [tert-butyl (S)-3-((4S,5S,7R)-5-hydroxy-8-((S)-1-(isobutylamino)-3-methyl-1-oxobutan-2-ylamino)-2,7-dimethyl-8-oxooctan-4-ylamino)-2-((S)-2-methyl-3-(4-methylthiazol-2-yl)propanamido)-3-oxopropylcarbamate], for which the Ki was less than 100 nM on memapsin 2, 100 to 600 nM at Memapsin 1 and less than 100 nM on Cathepsin D. The IC50 with Aβ production was less than 6000 nM.
Take `Cc1csc(C[C@H](C)C(=O)N[C@@H](CNC(=O)OC(C)(C)C)C(=O)N[C@@H](CC(C)C)[C@@H](O)C[C@@H](C)C(=O)N[C@H](C(=O)NN(C)C)C(C)C)n1` [tert-butyl (S)-3-((4S,5S,7R)-8-((S)-1-(2,2-dimethylhydrazinyl)-3-methyl-1-oxobutan-2-ylamino)-5-hydroxy-2,7-dimethyl-8-oxooctan-4-ylamino)-2-((S)-2-methyl-3-(4-methylthiazol-2-yl)propanamido)-3-oxopropylcarbamate]: the Ki on memapsin 2 is less than 100 nM; at Cathepsin D, 100 to 600 nM. Further, the IC50 in the experiment on Aβ production is less than 6000 nM.
